Here are results for 2 compounds from ChEMBL document CHEMBL4800721, “Data for DCP probe A-446” (2021).

Several values for one entry are separate records, joined by “and”; a condition that tells them apart may be missing. Identical values can stand only once. Activity calls are given as the source filed them. No cut-off for these calls is given here.

The target in assay [1] is T1, 5-hydroxytryptamine receptor 1D (Homo sapiens, UniProt P28221). Kind of assay: GPCRScan assay: inhibition of 5-HT1D. The arrangement: radioligand conc. used [nm] 1.0 – 2.0, parental cells HEKT.
T1 sequence (P28221 whole entry): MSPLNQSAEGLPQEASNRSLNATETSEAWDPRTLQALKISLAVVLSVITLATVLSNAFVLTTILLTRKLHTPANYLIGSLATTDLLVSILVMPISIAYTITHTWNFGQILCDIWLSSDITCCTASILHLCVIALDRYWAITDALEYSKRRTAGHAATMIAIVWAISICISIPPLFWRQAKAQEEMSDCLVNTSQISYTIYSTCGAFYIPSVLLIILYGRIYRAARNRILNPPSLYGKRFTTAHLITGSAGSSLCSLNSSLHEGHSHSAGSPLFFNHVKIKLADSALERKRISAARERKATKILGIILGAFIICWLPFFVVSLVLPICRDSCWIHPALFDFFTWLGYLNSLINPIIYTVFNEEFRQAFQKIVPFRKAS
Assay [2] addresses 5-hydroxytryptamine receptor 7 (Homo sapiens, UniProt P34969). Kind of assay: GPCRScan assay: inhibition of 5-HT7A. Also noted: radioligand conc. used [nm] 5.0 – 6.0, parental cells Stable HEK.
Assay [3] is described as follows: GPCRScan assay: inhibition of GABA/PBR. The arrangement: species or system Rattus norvegicus; radioligand conc. used [nm] 0.3 – 2.0, parental cells brain tissue.
The target of assay [4] is Glutaminase kidney isoform, mitochondrial (Homo sapiens, UniProt O94925). Kind of assay: GLS Enzyme activity assay.
Glutaminase kidney isoform, mitochondrial, sequence (O94925 whole entry, canonical isoform): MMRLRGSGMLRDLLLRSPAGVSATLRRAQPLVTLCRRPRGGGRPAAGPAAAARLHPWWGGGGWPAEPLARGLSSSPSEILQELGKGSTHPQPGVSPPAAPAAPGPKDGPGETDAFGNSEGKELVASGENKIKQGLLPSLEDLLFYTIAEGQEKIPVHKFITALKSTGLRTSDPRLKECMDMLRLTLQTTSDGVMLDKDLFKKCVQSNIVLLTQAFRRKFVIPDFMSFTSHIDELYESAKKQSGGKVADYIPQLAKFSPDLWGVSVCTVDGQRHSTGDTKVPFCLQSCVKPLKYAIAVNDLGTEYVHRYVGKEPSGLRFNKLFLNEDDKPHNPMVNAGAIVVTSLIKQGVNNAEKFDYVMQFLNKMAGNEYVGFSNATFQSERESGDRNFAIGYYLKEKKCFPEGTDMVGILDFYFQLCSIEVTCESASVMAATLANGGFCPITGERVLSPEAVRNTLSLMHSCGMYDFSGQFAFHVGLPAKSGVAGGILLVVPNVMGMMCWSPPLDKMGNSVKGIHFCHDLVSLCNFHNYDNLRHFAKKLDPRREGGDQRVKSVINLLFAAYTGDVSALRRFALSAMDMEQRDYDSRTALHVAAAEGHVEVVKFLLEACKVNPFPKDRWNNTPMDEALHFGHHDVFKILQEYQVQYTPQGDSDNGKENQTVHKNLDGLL
Assay [5] addresses Glutaminase liver isoform, mitochondrial (Homo sapiens, UniProt Q9UI32). Kind of assay: GLS2 Enzyme activity assay.
The next assay deals with A549. Kind of assay: A549 CTG Assay. In kind it is cell-based. The settings on record: Homo sapiens.
The target in assay [6] is 5-hydroxytryptamine receptor 1A (Homo sapiens) (UniProt P08908). The conditions noted are these: Compound concentration 10.0 uM.
For assay [7], the target named is 5-hydroxytryptamine receptor 1B (Homo sapiens) (UniProt P28222). The settings on record: Compound concentration 10.0 uM.
Assay [8] has as its target T1, 5-hydroxytryptamine receptor 1D. The settings on record: Compound concentration 10.0 uM.
Assay [9] addresses 5-hydroxytryptamine receptor 1E (Homo sapiens) (UniProt P28566). The conditions noted are these: Compound concentration 10.0 uM.
The target of assay [10] is 5-hydroxytryptamine receptor 2A (Homo sapiens) (UniProt P28223). The settings on record: Compound concentration 10.0 uM.
The target in assay [11] is 5-hydroxytryptamine receptor 2B (Homo sapiens) (UniProt P41595). The conditions noted are these: Compound concentration 10.0 uM.
The target in assay [12] is 5-hydroxytryptamine receptor 3A (Homo sapiens) (UniProt P46098). The settings on record: Compound concentration 10.0 uM.
In assay [13] the target is 5-hydroxytryptamine receptor 5A (Homo sapiens) (UniProt P47898). The conditions noted are these: Compound concentration 10.0 uM.
The target in assay [14] is 5-hydroxytryptamine receptor 6 (Homo sapiens) (UniProt P50406). The conditions noted are these: Compound concentration 10.0 uM.
The target in assay [15] is D(3) dopamine receptor (Homo sapiens) (UniProt P35462). The settings on record: Compound concentration 10.0 uM.
D(3) dopamine receptor (Homo sapiens), sequence (P35462 whole entry): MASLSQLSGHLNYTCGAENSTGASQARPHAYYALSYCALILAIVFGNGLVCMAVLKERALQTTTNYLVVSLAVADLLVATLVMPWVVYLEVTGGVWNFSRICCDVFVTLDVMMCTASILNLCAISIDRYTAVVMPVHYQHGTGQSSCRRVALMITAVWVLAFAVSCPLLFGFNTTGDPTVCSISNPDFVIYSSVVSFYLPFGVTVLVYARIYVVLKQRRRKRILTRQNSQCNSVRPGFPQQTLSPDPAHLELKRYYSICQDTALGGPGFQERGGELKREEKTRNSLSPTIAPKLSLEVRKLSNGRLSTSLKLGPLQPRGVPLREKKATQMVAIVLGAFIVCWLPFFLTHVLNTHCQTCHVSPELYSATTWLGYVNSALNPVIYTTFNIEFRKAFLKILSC
The target of assay [16] is D(4) dopamine receptor (Homo sapiens) (UniProt P21917). The conditions noted are these: Compound concentration 10.0 uM.
The target in assay [17] is Sodium-dependent dopamine transporter (Homo sapiens) (UniProt Q01959). The conditions noted are these: Compound concentration 10.0 uM.
Sodium-dependent dopamine transporter (Homo sapiens), sequence (Q01959 whole entry): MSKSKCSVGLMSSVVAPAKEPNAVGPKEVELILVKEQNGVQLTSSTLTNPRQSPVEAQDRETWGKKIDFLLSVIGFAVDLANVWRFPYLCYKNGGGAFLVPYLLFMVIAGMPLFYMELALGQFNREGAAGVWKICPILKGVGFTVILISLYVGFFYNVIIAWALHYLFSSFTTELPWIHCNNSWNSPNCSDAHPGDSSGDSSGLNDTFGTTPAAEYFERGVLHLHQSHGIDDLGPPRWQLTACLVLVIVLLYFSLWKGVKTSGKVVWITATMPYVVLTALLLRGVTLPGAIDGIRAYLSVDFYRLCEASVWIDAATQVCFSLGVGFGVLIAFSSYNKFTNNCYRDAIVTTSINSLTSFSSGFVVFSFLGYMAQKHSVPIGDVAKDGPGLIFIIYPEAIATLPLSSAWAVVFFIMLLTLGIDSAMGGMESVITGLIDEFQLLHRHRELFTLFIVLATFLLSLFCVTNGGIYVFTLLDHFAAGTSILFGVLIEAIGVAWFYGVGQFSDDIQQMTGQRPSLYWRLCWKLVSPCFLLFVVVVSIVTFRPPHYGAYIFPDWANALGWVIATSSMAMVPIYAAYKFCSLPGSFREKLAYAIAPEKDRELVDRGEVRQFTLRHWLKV
Assay [18] deals with Mu-type opioid receptor (Homo sapiens) (UniProt P35372). The settings on record: Compound concentration 10.0 uM.
Mu-type opioid receptor (Homo sapiens), sequence (P35372 whole entry): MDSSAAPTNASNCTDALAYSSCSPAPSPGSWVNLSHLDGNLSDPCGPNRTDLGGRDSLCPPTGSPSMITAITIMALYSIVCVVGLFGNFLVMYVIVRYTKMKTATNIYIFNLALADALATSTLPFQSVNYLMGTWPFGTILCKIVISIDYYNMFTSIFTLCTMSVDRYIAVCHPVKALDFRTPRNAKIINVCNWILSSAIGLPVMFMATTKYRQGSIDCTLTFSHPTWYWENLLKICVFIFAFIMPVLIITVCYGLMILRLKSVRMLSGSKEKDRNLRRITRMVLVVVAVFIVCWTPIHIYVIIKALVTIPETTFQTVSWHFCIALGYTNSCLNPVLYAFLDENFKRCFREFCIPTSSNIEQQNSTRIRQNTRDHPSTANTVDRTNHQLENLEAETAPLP
For assay [19], the target named is Delta-type opioid receptor (Homo sapiens) (UniProt P41143). The settings on record: Compound concentration 10.0 uM.
Assay [20] has as its target Kappa-type opioid receptor (Homo sapiens) (UniProt P41145). The settings on record: Compound concentration 10.0 uM.
The target of assay [21] is Histamine H1 receptor (Homo sapiens) (UniProt P35367). The conditions noted are these: Compound concentration 10.0 uM.
Assay [22] deals with Histamine H2 receptor (Homo sapiens) (UniProt P25021). The conditions noted are these: Compound concentration 10.0 uM.
For assay [23], the target named is Histamine H4 receptor (Homo sapiens) (UniProt Q9H3N8). The settings on record: Compound concentration 10.0 uM.
Histamine H4 receptor (Homo sapiens), sequence (Q9H3N8 whole entry): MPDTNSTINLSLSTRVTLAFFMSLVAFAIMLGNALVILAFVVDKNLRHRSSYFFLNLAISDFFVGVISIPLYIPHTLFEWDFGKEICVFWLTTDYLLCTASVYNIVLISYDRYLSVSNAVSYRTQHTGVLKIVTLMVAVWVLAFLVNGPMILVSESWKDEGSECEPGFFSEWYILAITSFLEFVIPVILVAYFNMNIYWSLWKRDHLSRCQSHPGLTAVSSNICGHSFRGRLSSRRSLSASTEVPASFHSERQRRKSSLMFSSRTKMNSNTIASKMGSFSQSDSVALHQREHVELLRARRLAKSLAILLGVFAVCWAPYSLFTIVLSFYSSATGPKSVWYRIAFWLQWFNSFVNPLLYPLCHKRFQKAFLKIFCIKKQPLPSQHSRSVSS
Assay [24] has as its target Alpha-2A adrenergic receptor (Homo sapiens) (UniProt P08913). The settings on record: Compound concentration 10.0 uM.
Assay [25] has as its target Alpha-2B adrenergic receptor (Homo sapiens) (UniProt P18089). The settings on record: Compound concentration 10.0 uM.
For assay [26], the target named is Alpha-2C adrenergic receptor (Homo sapiens) (UniProt P18825). The settings on record: Compound concentration 10.0 uM.
Assay [27] has as its target Beta-1 adrenergic receptor (Homo sapiens) (UniProt P08588). The settings on record: Compound concentration 10.0 uM.
For assay [28], the target named is Beta-2 adrenergic receptor (Homo sapiens) (UniProt P07550). The conditions noted are these: Compound concentration 10.0 uM.
The target in assay [29] is Muscarinic acetylcholine receptor M1 (Homo sapiens) (UniProt P11229). The conditions noted are these: Compound concentration 10.0 uM.
Assay [30] addresses Muscarinic acetylcholine receptor M3 (Homo sapiens) (UniProt P20309). The settings on record: Compound concentration 10.0 uM.
Assay [31] deals with Muscarinic acetylcholine receptor M4 (Homo sapiens) (UniProt P08173). The settings on record: Compound concentration 10.0 uM.
For assay [32], the target named is Muscarinic acetylcholine receptor M5 (Homo sapiens) (UniProt P08912). The conditions noted are these: Compound concentration 10.0 uM.
For assay [33], the target named is Sigma intracellular receptor 2 (Homo sapiens) (UniProt Q5BJF2). The conditions noted are these: Compound concentration 10.0 uM.
The target of assay [34] is Sigma non-opioid intracellular receptor 1 (Homo sapiens) (UniProt Q99720). The conditions noted are these: Compound concentration 10.0 uM.
Sigma non-opioid intracellular receptor 1 (Homo sapiens), sequence (Q99720 whole entry): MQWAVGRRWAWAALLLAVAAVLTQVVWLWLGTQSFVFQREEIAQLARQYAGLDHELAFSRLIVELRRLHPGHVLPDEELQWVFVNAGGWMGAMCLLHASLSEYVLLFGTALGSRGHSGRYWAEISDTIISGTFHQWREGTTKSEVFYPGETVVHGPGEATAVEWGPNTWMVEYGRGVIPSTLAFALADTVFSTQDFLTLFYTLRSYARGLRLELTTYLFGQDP

As a reminder, the pKi is the negative decadic logarithm of the Ki, by convention in mol/L. The IC50 is the midpoint of a concentration-inhibition curve. Usually inhibition stands for the change of the read-out against control, counted positive when it falls.

5-hydroxytryptamine receptor 7, sequence (P34969 whole entry): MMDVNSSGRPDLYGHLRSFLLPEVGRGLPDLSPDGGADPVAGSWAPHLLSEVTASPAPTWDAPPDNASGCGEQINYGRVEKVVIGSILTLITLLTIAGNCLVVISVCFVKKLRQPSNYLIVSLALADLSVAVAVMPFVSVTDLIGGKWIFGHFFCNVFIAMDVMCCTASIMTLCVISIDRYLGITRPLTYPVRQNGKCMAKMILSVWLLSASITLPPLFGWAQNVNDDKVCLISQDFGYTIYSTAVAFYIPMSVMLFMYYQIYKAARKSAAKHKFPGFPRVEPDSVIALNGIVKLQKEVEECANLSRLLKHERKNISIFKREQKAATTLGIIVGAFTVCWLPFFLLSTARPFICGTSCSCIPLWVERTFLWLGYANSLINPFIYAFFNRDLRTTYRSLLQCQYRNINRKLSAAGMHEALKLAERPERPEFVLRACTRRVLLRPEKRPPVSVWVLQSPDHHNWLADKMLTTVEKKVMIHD
Glutaminase liver isoform, mitochondrial, sequence (Q9UI32 whole entry, canonical isoform): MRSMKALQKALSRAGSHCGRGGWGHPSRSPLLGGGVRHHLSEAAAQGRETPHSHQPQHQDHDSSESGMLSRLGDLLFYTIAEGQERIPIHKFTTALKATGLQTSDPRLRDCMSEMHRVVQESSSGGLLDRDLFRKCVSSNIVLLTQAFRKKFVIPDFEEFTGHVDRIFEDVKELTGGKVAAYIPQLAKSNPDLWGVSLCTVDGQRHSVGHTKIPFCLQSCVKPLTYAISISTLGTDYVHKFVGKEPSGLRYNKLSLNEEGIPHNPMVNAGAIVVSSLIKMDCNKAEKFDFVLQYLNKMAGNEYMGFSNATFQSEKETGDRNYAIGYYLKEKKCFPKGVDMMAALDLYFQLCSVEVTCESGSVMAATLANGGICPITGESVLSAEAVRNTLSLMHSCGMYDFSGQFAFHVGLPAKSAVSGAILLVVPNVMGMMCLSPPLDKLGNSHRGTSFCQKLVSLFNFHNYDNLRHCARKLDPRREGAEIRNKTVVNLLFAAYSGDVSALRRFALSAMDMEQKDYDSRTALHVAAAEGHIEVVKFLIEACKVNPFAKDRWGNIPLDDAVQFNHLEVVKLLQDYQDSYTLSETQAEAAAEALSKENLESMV
Kappa-type opioid receptor (Homo sapiens), sequence (P41145 whole entry): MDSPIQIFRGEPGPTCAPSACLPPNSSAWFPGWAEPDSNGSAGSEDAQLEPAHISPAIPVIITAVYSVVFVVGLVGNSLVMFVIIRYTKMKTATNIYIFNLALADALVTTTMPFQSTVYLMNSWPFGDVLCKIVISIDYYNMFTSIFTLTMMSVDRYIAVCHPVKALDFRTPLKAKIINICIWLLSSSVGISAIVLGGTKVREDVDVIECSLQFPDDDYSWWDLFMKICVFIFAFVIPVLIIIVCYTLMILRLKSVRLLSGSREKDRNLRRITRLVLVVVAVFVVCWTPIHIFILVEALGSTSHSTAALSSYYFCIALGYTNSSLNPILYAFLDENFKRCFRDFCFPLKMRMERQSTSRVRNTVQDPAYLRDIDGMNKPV
5-hydroxytryptamine receptor 1E (Homo sapiens), sequence (P28566 whole entry): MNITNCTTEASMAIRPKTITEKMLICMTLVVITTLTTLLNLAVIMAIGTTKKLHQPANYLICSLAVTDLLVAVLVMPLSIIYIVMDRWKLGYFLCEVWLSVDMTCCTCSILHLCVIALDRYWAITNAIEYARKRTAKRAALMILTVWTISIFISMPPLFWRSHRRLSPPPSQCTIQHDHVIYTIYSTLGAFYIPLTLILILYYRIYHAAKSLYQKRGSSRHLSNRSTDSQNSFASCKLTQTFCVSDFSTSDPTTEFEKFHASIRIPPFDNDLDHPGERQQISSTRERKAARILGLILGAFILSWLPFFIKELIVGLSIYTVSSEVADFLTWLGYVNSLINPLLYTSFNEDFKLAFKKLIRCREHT

With `O=C(Cc1ccccc1)Nc1nnc(N2C[C@H]3C[C@@H]2CN3c2cccnn2)s1` [A-446], the Ki in assay [1] (read-out: Ki) is > 10 µM and 6.45 µM; in assay [1] (read-out: pKi (converted)), above 10 µM; in assay [2] it was above 10 µM; in assay [3] it was above 10 µM. In addition, the pKi in assay [2] and in assay [3] was below 5 each time. For the same compound, the half-maximal inhibitory concentration (IC50) in [4] was 0.031 µM (active); in assay [5], > 30 µM (not active); with A549, 0.0105 µM (active). Besides, the inhibition is 1.9% in assay [6]; 11.2% in [7]; 55.1% in [8]; -1.42% in assay [9]; -2.63% in assay [10]; 1.83% in assay [11]. Further, the inhibition in assay [12] is 1.72%; in assay [13], 4.08%; in assay [14], -4.23%; in [15] it was -3.72%; in assay [16], -7.36%; in assay [17], 33.5%. Further, the inhibition was -3.29% in assay [18]; -2.96% in assay [19]; 2.85% in assay [20]; 21.3% in assay [21]; -5.22% in assay [22]; 18.3% in assay [23]. The inhibition in assay [24] is 12.2%; in assay [25] it was -6.1%; in assay [26], 13.9%; in assay [27], 1.03%; in assay [28], -8.05%; in assay [29], 14.6%. Also, the inhibition is 9.66% in [30]; -9.24% in assay [31]; 15% in assay [32]; 6.42% in [33]; 9.03% in assay [34].
Consider `O=C(Cc1ccccc1)Nc1nnc(N2CC[C@@H]3[C@H]2CN3c2cccnn2)s1` [A-426], for which the IC50 in assay [4] and in assay [5] was > 30 µM (not active) in each case.
